Data set [1] addresses T1, AT1 receptor (AII receptor) (Bos taurus, UniProt P25104).
T1 construct: from tissue; host or cells: bovine adrenal cortex membranes
T1 sequence (P25104 1-359): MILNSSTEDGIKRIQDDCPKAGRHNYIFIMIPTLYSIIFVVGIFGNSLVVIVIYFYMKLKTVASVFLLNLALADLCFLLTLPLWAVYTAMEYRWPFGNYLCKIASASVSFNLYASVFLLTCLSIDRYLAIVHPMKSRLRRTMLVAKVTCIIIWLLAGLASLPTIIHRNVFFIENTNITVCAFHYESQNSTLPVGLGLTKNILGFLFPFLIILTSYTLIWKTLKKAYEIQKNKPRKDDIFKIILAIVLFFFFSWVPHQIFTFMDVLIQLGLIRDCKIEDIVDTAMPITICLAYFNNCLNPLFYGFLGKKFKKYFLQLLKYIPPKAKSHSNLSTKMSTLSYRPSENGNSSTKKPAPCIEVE
The data set is classed as binding, bovine. As to conditions: competition.

For data set [2] the following is noted: arterial and venous blood in man; cited from earlier work.
Data set [3] relates to rat kidney. Put plainly: Renal cortical blood flow (laser doppler) and arterial pressure after infusion into the renal artery. The class given is in vivo.
Data set [4] has as its target T2, AT4 receptor (Bos taurus, UniProt F1N1Q8).
T2 sequence (F1N1Q8 1-1022): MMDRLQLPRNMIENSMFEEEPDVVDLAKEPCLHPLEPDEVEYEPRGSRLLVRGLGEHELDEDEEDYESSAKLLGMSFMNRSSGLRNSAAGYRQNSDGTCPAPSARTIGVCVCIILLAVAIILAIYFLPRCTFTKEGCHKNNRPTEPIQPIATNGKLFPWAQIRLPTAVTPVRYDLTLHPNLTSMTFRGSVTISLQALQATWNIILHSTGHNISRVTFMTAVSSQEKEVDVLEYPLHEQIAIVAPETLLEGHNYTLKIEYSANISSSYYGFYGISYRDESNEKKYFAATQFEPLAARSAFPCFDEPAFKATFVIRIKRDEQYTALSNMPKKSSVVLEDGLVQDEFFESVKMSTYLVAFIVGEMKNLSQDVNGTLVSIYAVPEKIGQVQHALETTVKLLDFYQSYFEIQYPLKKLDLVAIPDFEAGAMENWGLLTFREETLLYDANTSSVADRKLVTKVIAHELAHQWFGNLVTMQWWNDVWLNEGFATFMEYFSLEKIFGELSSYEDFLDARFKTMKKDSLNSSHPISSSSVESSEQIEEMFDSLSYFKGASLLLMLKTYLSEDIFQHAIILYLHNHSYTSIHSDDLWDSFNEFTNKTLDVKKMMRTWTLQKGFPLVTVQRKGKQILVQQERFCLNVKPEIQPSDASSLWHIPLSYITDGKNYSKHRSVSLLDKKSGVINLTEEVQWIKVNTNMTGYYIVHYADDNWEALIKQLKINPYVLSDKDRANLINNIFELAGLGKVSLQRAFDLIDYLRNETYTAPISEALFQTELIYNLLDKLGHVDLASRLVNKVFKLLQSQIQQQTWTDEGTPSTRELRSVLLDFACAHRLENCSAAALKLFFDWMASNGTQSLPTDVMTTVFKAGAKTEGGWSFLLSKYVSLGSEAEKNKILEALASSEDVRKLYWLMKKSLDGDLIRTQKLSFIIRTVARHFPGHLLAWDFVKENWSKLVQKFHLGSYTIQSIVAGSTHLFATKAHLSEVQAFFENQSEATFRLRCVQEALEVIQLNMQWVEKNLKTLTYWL
Put plainly: 125I-AIV binding and competition, solubilized bovine adrenal cortical receptor.

Data set [5] relates to cardiocytes. Put plainly: Hypertrophic action of AII on cardiocytes. The data set is classed as cell-based.
The test system of data set [6] is rats. Put plainly: Passive avoidance conditioning after icv injection. The data set is classed as in vivo, rat.
For data set [7], the system named is bovine endothelial cells. In words: Endothelial cell growth (thymidine incorporation) and EDRF production. The class given is cell-based. Here is the method: Cells were grown at 37° C. in 35 mm culture plates […] under 5% CO2 /95% air in Dulbecco's Modified Eagle's Medium (DMEM) supplemented with 5 μg/ml insulin and 10% (v/v) newborn bovine serum (NBBS). […] Negative controls were also included using ethidium bromide (1 mM). The cells were harvested at various times, and cellular lysates were prepared for scintillation counting by lysing and washing the cells on glass fiber filters.
Bovine aortic endothelial cells were grown at 37° C. in 35 mm culture plates under 5% CO2 in air in Dulbecco's Modified Eagle's Medium (DMEM) supplemented with 5 μg/ml insulin and 10% (v/v) newborn bovine serum (NBBS). The medium was aspirated 10-12 hours after seeding and replaced with serum-free medium. The medium was again aspirated 10-12 hours later and replaced with either test or control medium. Control medium was DMEM with 5 µg/ml insulin and 2%, 5%, or 10% (v/v) NBBS as indicated. […] The medium was changed every 48 h (i.e., with supportive DMEM medium for the remainder of the experiment).
As an adjunct to the determination of cell numbers, thymidine incorporation was measured. […] This material was then filtered under vacuum through 2.4 cm glass fiber filters (GF/A, Whatman), and the filters were washed twice with 10 ml of absolute ethanol and assayed for radioactivity by scintillation counting.
In general terms: Incorporation of labelled thymidine or its analogues reports DNA synthesis.

Data set [8] deals with T2, AT4 receptor. Put plainly: 125I-AIV binding and competition, bovine adrenal cortical membranes.
Data set [9] concerns AT4 receptor. The data set is classed as binding, rat. The conditions noted are these: brain, heart, kidney, aorta, lung, liver, cultured smooth muscle cells. The procedure:
A second major approach to defining separate and distinct binding sites was to examine their relative tissue and species distribution (Table 8).
*25 μg of membrane protein was incubated with 500,000 cpm of label.
Specific binding was defined as total […]
At this time, the significance of this finding is uncertain.

Data set [10] relates to AT1 receptors. In words: GTPγS effect on 125I-AII binding, rat vascular smooth muscle cell (RVSMC) membranes. The conditions noted are these: 0.5 nM 125I-AII.
In data set [11] the target is T2, AT4 receptor. Put plainly: 125I-AIV binding, aortic endothelial cell (BAEC) membranes. Further details: species or system bovine. The conditions noted are these: 0.6 nM 125I-AIV.

Entries after “also recorded” stand apart in the source; their conditions may differ.

In the case of `CC[C@H](C)[C@H](NC(=O)[C@H](Cc1ccc(O)cc1)NC(=O)[C@@H](N)C(C)C)C(=O)N[C@@H](Cc1cnc[nH]1)C(=O)N1CCC[C@H]1C(=O)N[C@@H](Cc1ccccc1)C(=O)O` [AIV, Val1 Tyr2 Ile3 His4 Pro5 Phe6], in [1], the Ki is greater than 1000 nM. For the same molecule, the half-lives in data set [2] was 1.9 min. In addition, the “effect on renal blood flow (in words)” value in data set [3] (infusion into renal artery) is “profound and long-lasting increase in blood flow; also recorded: equally dramatic increase in flow; also recorded: dramatically increase renal blood flow and urine flow in a dose-dependent fashion”. Besides, the “effect of preinfusion on blood flow response to another ligand” value in data set [3] (rat, in vivo) was “completely blocked the constrictive action of AII”. Besides, the “agonist / antagonist activity (in words)” value in data set [3] (renal blood flow response compared to AIV) is given as “full agnoistic activity”. In addition, the “off-rate t1/2” value in data set [4] is 4.873 h. For the same molecule, the “effect on hypertrophic action of AII” value in data set [5] is reported as “antagonizes the hypertrophic action of AII”. The “passive avoidance latency / cognitive effect (in words)” value in [6] is reported as “significantly elevated latency times”. For the same molecule, in [7], the EDRF production entry was “stimulating production of endothelial cell relaxing factor (EDRF)” and the “endothelial cell proliferation (thymidine incorporation)” value is recorded as “enhancing cellular proliferation”. Moreover, the Bmax in data set [8] came to 3.82±1.12. Also, in data set [9], the “binding in rat tissues (in words)” value is listed as “not been possible to demonstrate binding”.

On to `Nc1nc2c(ncn2[C@@H]2O[C@H](COP(=O)(O)OP(=O)(O)OP(O)(O)=S)[C@@H](O)[C@H]2O)c(=O)[nH]1` [GTPγS], for which, in data set [10], the “effect on 125I-AII binding” value was “inhibited”. Further, the “effect on 125I-AIV binding” value in data set [11] is on record as “no effect; also recorded: did not inhibit (or alter) binding”.

By Ki is commonly meant the equilibrium dissociation constant of an inhibitor or competing ligand from its target. A higher Ki goes with weaker binding.

Source of the values: patent US5854388A, “Angiotensin IV peptides and receptor” (Washington State University Research Foundation, priority 1994, dated 1998).
